Laboratory results from US20260232578A1, “COMPOSITIONS AND METHODS FOR TRANSMUCOSAL ABSORPTION” (Tonix Pharma Limited, priority 2012, published 2026).
“And” between values parts separate entries of the source, which are not always exact repeats. Equal values may be shown once. Read-outs that look alike come from different tables or passages of the source.

Assays:
[1] = biological target: T1, adrenergic alpha-2B receptor (Alpha2B) (Homo sapiens, UniProt P18089); experiment: Equilibrium receptor binding, recombinant human receptor
T1 construct: expressed in transfected cells

[2] = biological target: T2, adrenergic alpha-2A receptor (Alpha2A) (Homo sapiens, UniProt P08913); experiment: as above
T2 construct: expressed in transfected cells
T2 sequence (P08913 1-465): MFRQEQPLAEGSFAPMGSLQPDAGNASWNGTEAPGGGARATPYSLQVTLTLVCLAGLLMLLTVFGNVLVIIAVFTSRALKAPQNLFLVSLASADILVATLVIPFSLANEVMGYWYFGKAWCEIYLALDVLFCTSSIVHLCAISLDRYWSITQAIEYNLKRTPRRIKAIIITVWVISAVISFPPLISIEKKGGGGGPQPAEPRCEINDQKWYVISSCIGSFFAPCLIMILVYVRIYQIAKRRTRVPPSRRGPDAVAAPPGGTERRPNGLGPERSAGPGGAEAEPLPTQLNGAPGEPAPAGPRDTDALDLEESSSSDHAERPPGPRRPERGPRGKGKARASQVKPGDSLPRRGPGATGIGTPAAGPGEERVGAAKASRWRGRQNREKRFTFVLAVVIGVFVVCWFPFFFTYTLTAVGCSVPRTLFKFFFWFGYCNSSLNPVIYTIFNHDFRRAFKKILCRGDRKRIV

5-HT2B [3] = biological target: T3, 5-HT2B (Homo sapiens, UniProt P41595); experiment: as above
T3 construct: expressed in transfected cells

histamine H1 receptor = biological target: T4, histamine H1 receptor (Homo sapiens, UniProt P35367); experiment: as above; settings: for Ki: H1
T4 construct: expressed in transfected cells

5-HT5A receptor = biological target: T5, 5-HT5A receptor (Homo sapiens, UniProt P47898); experiment: as above
T5 construct: expressed in transfected cells

muscarinic M1 receptor [4] = biological target: T6, muscarinic M1 receptor (Homo sapiens, UniProt P11229); experiment: G-protein-independent signal transduction, β-arrestin signaling; format: cell-based; set-up: expressed in transfected cells; settings: for IC50: M1, β-arrestin signaling, read-out: IC50, functional antagonist
T6 sequence (P11229 1-460): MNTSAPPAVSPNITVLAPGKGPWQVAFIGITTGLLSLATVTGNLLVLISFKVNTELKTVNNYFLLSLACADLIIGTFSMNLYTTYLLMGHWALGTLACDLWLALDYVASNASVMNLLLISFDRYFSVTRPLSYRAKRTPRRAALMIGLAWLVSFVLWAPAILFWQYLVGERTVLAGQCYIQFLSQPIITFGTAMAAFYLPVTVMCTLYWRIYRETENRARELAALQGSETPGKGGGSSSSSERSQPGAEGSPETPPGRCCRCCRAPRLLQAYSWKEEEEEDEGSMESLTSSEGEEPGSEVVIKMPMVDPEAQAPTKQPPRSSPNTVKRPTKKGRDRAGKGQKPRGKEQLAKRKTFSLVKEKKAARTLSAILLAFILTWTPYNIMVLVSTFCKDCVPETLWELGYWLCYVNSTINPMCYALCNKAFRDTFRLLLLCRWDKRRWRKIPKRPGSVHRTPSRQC

5-HT2B [5] = biological target: T3, 5-HT2B; experiment: G-protein-dependent signal transduction, intracellular Ca2+ mobilization; format: cell-based; settings: for IC50: Ca2+ mobilization, read-out: IC50, functional antagonist
Description: (§1) Quantitation was based on peak area ratio of the analytes versus their stable labeled internal standards. A weighted (1/C2), linear regression was performed to determine the concentration of the analytes. All regressions and figures presented in this validation report were generated by MDS Sciex Analyst version 1.4.2 and Thermo Electron Corporation Watson LIMS software, version 7.0.0.01b. […] Select receptors were analyzed in ligand-induced intracellular calcium mobilization.

5-HT2C receptor = biological target: T7, 5-HT2C receptor (Homo sapiens, UniProt P28335); experiment: as above; format: cell-based
T7 construct: expressed in transfected cells
T7 sequence (P28335 33-458): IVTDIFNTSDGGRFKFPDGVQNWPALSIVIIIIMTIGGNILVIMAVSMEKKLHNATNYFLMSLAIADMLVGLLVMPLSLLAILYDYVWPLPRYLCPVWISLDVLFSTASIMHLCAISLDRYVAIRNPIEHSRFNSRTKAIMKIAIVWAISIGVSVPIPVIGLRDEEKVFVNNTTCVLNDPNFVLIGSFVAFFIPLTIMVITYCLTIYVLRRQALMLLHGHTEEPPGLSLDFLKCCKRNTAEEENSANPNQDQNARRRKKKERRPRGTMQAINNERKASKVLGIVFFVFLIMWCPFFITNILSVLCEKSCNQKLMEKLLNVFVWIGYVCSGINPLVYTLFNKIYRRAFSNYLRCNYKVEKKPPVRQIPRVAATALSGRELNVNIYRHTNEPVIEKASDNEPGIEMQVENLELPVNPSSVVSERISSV
Description: as §1

5-HT2A [6] = biological target: T8, 5-HT2A (Homo sapiens, UniProt P28223); experiment: as above; format: cell-based; settings: for IC50: Ca2+ mobilization, read-out: IC50, functional antagonist
T8 construct: expressed in transfected cells
Description: as §1

[7] = biological target: T9, adrenergic alpha-2C receptor (Alpha2C) (Homo sapiens, UniProt P18825); experiment: Equilibrium receptor binding, recombinant human receptor
T9 construct: expressed in transfected cells
T9 sequence (P18825 1-462): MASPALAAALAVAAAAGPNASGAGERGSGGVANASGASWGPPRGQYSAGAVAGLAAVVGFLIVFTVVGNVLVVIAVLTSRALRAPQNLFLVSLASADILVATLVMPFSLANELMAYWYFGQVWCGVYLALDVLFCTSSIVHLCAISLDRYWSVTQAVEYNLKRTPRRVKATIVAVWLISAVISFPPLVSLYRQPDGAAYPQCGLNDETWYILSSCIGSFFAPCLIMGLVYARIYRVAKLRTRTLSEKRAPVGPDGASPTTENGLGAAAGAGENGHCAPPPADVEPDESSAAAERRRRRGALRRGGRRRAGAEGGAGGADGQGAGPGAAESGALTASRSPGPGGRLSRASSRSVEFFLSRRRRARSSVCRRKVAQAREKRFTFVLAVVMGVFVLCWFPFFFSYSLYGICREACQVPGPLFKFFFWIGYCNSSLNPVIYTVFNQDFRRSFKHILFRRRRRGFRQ

5-HT2A [8] = biological target: T8, 5-HT2A; experiment: biochemical; format: binding; settings: for Ki: 5-HT2A
5-HT transporter = 5-HT transporter (Homo sapiens, UniProt P31645); experiment: Equilibrium binding to transporters (FIG. 19); settings: Serotonin TP (transporter)
muscarinic M1 receptor [9] = biological target: T6, muscarinic M1 receptor; experiment: G-protein-dependent signal transduction, intracellular Ca2+ mobilization; format: cell-based; set-up: expressed in transfected cells; settings: for IC50: M1, Ca2+ mobilization, read-out: IC50, functional antagonist
[10] = 5-HT2c, read-out: IC50, functional antagonist

T3 sequence (P41595 whole entry): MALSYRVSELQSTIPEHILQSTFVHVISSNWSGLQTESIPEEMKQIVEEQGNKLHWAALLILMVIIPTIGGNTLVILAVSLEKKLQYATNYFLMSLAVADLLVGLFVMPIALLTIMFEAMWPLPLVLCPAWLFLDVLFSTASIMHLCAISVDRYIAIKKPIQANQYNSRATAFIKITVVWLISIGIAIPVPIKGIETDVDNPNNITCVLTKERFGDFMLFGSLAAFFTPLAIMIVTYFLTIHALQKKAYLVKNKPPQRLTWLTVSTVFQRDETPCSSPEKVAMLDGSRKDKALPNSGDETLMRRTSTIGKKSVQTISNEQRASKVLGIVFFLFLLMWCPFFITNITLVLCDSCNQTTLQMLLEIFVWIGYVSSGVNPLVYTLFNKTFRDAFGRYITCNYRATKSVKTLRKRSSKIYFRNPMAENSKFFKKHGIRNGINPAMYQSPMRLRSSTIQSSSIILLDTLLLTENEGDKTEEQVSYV
T4 sequence (P35367 whole entry): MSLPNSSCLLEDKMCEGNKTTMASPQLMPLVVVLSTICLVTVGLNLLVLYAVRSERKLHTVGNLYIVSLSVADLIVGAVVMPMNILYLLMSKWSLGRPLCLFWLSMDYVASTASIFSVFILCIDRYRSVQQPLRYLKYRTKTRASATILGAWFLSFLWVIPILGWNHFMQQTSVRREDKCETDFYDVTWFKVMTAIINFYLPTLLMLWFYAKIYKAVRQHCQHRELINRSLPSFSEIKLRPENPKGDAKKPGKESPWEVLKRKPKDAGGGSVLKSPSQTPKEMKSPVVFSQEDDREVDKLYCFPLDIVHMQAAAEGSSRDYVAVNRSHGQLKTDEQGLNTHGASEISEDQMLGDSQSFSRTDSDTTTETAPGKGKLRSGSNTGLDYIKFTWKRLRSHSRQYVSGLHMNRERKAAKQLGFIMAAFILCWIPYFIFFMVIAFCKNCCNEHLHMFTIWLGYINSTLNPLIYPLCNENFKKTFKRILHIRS
T8 sequence (P28223 whole entry): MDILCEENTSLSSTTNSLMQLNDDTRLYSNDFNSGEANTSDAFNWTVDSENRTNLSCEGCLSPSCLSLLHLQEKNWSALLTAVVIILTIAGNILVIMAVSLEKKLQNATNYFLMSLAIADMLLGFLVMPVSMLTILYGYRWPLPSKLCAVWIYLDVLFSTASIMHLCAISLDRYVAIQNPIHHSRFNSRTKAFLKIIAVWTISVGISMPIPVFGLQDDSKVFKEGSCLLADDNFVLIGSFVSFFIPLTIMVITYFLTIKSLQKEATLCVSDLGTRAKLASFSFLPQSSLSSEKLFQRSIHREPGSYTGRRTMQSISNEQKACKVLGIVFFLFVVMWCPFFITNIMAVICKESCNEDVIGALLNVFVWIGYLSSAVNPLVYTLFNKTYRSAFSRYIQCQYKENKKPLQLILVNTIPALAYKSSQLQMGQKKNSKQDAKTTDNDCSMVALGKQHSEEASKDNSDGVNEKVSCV
5-HT transporter, sequence (P31645 whole entry): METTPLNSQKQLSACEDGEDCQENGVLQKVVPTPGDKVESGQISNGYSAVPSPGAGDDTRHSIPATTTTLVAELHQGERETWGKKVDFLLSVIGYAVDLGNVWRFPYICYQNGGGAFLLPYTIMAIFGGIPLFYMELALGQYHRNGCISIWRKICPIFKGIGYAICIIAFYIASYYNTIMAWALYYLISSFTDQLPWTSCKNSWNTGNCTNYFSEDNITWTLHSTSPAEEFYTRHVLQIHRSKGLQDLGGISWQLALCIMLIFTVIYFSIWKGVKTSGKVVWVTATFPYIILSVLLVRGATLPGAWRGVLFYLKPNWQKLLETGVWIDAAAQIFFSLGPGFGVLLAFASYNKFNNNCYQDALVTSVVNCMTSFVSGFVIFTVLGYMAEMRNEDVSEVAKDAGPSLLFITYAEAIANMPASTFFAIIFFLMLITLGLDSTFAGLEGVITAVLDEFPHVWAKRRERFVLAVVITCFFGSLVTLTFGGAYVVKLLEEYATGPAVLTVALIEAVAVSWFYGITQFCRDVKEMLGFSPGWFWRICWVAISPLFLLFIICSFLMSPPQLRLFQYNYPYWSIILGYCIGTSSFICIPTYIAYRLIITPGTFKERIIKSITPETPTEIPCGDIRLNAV
T1 sequence (P18089 whole entry): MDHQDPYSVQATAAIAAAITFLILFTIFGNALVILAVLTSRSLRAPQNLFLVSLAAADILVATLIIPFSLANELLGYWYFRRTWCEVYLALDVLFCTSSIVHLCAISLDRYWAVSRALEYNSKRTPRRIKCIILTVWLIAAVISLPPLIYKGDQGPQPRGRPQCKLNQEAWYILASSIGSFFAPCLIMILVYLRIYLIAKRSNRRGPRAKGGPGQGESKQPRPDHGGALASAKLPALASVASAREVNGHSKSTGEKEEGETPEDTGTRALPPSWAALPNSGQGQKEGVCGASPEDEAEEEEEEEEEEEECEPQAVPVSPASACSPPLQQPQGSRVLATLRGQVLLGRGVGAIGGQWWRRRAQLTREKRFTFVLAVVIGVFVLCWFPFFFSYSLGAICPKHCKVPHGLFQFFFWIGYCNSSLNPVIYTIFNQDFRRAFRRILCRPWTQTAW
T5 sequence (P47898 whole entry): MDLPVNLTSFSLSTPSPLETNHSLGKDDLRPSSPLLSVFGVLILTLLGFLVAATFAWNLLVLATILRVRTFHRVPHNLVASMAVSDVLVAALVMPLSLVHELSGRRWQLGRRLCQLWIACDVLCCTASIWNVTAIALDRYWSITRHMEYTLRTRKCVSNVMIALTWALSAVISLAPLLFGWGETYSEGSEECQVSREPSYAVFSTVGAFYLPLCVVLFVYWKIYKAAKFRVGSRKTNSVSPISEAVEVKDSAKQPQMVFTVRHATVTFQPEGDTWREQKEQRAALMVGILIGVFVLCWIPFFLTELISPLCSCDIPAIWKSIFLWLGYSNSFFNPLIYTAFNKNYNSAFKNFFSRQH

SMILES	Ki [1]	Ki [2]	Ki (5-HT2B [3])	Ki (histamine H1 receptor)	Ki (5-HT5A receptor)	IC50 (muscarinic M1 receptor [4])	IC50 (5-HT2B [5])	IC50 (5-HT2C receptor; [10])	IC50 (5-HT2A [6])	Ki [7]	Ki (5-HT2A [8])	IC50 (muscarinic M1 receptor [9])	other results
CN(C)CCC=C1c2ccccc2C=Cc2ccccc21 [cyclobenzaprine, 3-(5H-dibenzo[a,d]cyclohepten-5-ylidene)-N,N-dimethyl-1-propanamine]	0.021 µM	0.36 µM	0.015 µM	0.0013 µM	0.73 µM	0.081 µM	0.1 µM	440 nM	0.23 µM	0.021 µM and 0.025 µM	0.0052 µM and 0.0051 µM	0.00071 µM	IC50 (5-HT2C receptor; 5-HT2C, read-out: IC50 (nM) (Antagonist)): 444 nM; IC50 (5-HT transporter; read-out: IC50 (nM) (Antagonist)): 91 nM
CNCCC=C1c2ccccc2C=Cc2ccccc21 [norcyclobenzaprine, 3-(5H-dibenzo[a,d]cyclohepten-5-ylidene)-N-methyl-1-propanamine]	0.15 µM	1.8 µM	0.012 µM	0.0056 µM and 0.0059 µM	1.6 µM	0.266 µM	0.58 µM	1220 nM	0.092 µM and 0.14 µM	0.048 µM	0.013 µM and 0.0132 µM	0.0087 µM	Hill plot ratio (Hill slope) (5-HT2B [3]; equilibrium binding): 1.10; Hill plot ratio (Hill slope) (histamine H1 receptor): 1.04; Four parameter Hill slope (or fit slope) ratio; β-arrestin signaling (muscarinic M1 receptor [4]; M1): 1.05; Four parameter Hill slope (or fit slope) ratio; Ca2+ signaling (5-HT2B [5]): 1.54; Four parameter Hill slope (or fit slope) ratio; Ca2+ signaling (5-HT2C receptor; 5-HT2C): 0.94; Four parameter Hill slope (or fit slope) ratio; Ca2+ signaling (5-HT2A [6]): 1.27; Hill plot ratio (Hill slope) (5-HT2A [8]): 0.50; Ki (5-HT transporter): 0.029 µM; Four parameter Hill slope (or fit slope) ratio; Ca2+ signaling (muscarinic M1 receptor [9]; M1): 0.62
